The text below walks through data of ChEMBL document CHEMBL2429821, “A Casein kinase 1/Checkpoint kinase 1 pyrazolo-pyridine protein kinase inhibitor as novel activator of the p53 pathway” (Bioorg Med Chem Lett, 2013).

Experiment [1] concerns the target SRSF protein kinase 1 (Homo sapiens) (UniProt Q96SB4). Briefly: Inhibition of human SRPK1 assessed as residual activity at 1 uM relative to control.
Experiment [2] concerns the target Serine/threonine-protein kinase Nek6 (Homo sapiens) (UniProt Q9HC98). The experiment can be described thus: Inhibition of human NEK6 assessed as residual activity at 1 uM relative to control.
Experiment [3] has as its target Serine/threonine-protein kinase pim-2 (Homo sapiens) (UniProt Q9P1W9). Briefly: Inhibition of human PIM2 assessed as residual activity at 10 uM relative to control.
Experiment [4] deals with MAP kinase-activated protein kinase 2 (Homo sapiens) (UniProt P49137). Briefly: Inhibition of human MAPKAPK2 assessed as residual activity at 1 uM relative to control.
Chain of MAP kinase-activated protein kinase 2 (Homo sapiens) (P49137 whole entry, looked up): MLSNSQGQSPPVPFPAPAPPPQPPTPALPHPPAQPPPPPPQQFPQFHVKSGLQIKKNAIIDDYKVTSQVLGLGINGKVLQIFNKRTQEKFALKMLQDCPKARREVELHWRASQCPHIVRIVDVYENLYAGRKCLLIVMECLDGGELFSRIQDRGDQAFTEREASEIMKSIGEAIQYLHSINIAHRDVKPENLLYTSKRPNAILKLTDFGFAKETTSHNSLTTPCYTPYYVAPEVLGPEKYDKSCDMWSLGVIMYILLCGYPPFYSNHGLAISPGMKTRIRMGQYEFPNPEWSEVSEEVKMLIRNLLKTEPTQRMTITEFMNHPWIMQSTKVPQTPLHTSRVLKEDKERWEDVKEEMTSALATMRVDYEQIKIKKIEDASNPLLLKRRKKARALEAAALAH
Experiment [5] addresses Ribosomal protein S6 kinase alpha-3 (Homo sapiens) (UniProt P51812). Briefly: Inhibition of human RSK2 assessed as residual activity at 1 uM relative to control.
In experiment [6] the test system is A-375. Briefly: Cell cycle arrest in human A375 cells assessed as accumulation at G2-M phase at 80 uM after 48 hrs by FACS flow cytometric analysis (reference value: 17.3%). It counts as functional. (In general: A flow cytometer gives signals particle by particle.)
Experiment [7] concerns A-375. The experiment can be described thus: Cell cycle arrest in human A375 cells assessed as accumulation at sub-G1 phase at 80 uM after 48 hrs by FACS flow cytometric analysis (reference value: 2.17%). It counts as functional.
For experiment [8], the target named is Ribosomal protein S6 kinase alpha-5 (Homo sapiens) (UniProt O75582). Briefly: Inhibition of human MSK1 assessed as residual activity at 1 uM relative to control.
Chain of Ribosomal protein S6 kinase alpha-5 (Homo sapiens) (O75582 whole entry, looked up): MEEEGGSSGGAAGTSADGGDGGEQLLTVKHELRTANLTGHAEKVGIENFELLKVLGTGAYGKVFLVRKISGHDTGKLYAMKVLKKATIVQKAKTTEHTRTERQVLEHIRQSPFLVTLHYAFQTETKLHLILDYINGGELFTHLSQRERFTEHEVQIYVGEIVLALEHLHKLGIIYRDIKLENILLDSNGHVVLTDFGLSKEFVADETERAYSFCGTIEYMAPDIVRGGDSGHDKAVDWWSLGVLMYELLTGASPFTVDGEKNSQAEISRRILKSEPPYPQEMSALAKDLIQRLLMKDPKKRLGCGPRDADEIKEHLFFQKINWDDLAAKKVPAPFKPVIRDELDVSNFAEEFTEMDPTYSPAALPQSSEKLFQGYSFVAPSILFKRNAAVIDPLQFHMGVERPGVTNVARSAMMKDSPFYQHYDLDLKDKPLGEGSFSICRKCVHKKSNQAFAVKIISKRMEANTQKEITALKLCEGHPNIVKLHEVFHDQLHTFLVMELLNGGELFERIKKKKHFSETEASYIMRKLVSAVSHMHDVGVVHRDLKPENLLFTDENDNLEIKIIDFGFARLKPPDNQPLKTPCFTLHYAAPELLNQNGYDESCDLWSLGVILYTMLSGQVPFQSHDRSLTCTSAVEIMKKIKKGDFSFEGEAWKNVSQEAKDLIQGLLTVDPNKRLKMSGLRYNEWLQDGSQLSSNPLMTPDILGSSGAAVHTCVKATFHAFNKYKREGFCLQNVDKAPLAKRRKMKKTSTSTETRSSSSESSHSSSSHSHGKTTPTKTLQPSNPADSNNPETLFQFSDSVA
For experiment [9], the target named is Serine/threonine-protein kinase pim-1 (Homo sapiens) (UniProt P11309). The experiment can be described thus: Inhibition of human PIM1 assessed as residual activity at 1 uM relative to control.
Chain of Serine/threonine-protein kinase pim-1 (Homo sapiens) (P11309 whole entry, looked up): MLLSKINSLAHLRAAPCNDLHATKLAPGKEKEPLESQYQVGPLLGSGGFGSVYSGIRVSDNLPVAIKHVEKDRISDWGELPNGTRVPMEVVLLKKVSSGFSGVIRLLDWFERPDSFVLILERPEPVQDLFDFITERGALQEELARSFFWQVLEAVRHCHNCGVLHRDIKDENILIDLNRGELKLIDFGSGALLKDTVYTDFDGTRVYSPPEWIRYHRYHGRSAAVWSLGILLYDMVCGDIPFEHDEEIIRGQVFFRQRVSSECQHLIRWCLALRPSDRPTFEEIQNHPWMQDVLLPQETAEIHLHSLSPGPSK
Experiment [10] has as its target Maternal embryonic leucine zipper kinase (Homo sapiens) (UniProt Q14680). The experiment can be described thus: Inhibition of human MELK assessed as residual activity at 1 uM relative to control.
Experiment [11] deals with Dual specificity tyrosine-phosphorylation-regulated kinase 1A (Rattus norvegicus) (UniProt Q63470). Briefly: Inhibition of rat DYRK1alpha assessed as residual activity at 10 uM relative to control.
For a further experiment, the species on record is Bos taurus. The experiment can be described thus: Inhibition of cow PKA assessed as residual activity at 10 uM relative to control.
Experiment [12] concerns the target T1, Mitogen-activated protein kinase 15 (Homo sapiens) (UniProt Q8TD08).
T1 sequence (whole entry): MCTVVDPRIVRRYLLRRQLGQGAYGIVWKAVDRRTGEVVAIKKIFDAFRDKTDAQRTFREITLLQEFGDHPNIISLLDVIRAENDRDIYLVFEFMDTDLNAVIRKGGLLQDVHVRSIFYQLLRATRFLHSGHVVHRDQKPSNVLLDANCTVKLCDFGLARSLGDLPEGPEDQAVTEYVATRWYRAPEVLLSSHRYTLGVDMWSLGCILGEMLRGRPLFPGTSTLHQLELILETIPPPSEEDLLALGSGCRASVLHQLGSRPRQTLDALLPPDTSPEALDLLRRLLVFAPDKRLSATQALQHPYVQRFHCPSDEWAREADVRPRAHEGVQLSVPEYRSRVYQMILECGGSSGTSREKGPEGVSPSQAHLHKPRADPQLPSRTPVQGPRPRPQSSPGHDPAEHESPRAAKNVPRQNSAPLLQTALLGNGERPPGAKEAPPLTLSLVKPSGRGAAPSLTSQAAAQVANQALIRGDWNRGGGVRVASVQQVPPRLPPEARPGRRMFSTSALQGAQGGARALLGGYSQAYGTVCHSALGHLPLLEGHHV
The experiment can be described thus: Inhibition of human ERK8 assessed as residual activity at 10 uM relative to control.

For experiment [13], the target named is T2, Serine/threonine-protein kinase D1 (Homo sapiens) (UniProt Q15139).
T2 sequence (whole entry): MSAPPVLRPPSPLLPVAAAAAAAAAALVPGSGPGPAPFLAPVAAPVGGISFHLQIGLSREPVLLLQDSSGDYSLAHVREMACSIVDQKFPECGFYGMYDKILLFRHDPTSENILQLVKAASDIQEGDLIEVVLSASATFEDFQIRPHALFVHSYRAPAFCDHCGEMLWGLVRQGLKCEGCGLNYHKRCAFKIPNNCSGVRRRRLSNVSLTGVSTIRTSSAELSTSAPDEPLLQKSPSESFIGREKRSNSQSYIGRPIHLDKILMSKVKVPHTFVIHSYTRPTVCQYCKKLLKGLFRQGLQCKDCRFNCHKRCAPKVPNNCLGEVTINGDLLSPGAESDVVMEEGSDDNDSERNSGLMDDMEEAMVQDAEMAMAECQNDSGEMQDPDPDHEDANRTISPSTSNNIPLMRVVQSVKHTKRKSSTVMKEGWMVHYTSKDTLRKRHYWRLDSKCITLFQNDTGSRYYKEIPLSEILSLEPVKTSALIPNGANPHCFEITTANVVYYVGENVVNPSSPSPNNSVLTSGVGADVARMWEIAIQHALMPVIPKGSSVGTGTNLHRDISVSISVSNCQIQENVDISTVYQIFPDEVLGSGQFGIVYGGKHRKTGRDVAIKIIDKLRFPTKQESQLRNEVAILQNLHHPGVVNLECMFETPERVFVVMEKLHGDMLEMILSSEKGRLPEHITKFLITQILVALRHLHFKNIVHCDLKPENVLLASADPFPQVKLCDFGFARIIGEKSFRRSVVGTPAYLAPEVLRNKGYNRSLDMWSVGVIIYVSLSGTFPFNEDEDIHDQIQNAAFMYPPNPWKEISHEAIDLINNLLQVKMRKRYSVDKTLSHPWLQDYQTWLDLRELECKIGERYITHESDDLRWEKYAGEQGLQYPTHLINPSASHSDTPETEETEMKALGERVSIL
The experiment can be described thus: Inhibition of human PKD1 assessed as residual activity at 10 uM relative to control.

Another experiment is filed under the species Rattus norvegicus. The experiment can be described thus: Inhibition of rat AMPK assessed as residual activity at 10 uM relative to control.
The target in experiment [14] is T3, Mitogen-activated protein kinase 12 (Homo sapiens) (UniProt P53778).
T3 sequence (whole entry): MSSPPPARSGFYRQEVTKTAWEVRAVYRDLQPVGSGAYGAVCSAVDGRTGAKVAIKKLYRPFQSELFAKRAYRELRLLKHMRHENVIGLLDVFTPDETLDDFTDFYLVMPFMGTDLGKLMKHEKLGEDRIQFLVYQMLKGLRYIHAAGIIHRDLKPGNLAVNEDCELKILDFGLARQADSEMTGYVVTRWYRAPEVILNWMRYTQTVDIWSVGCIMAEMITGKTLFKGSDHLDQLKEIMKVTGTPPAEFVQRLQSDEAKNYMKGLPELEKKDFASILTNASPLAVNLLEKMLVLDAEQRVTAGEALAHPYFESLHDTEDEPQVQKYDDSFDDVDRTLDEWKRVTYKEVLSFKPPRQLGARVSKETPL
Briefly: Inhibition of human p38gamma MAPK assessed as residual activity at 1 uM relative to control.

The species named for the next experiment is Homo sapiens. The experiment can be described thus: Inhibition of human VEGFR assessed as residual activity at 1 uM relative to control.
The target in experiment [15] is Mitogen-activated protein kinase 8 (Homo sapiens) (UniProt P45983). Briefly: Inhibition of human JNK1 assessed as residual activity at 1 uM relative to control.
Chain of Mitogen-activated protein kinase 8 (Homo sapiens) (P45983 whole entry): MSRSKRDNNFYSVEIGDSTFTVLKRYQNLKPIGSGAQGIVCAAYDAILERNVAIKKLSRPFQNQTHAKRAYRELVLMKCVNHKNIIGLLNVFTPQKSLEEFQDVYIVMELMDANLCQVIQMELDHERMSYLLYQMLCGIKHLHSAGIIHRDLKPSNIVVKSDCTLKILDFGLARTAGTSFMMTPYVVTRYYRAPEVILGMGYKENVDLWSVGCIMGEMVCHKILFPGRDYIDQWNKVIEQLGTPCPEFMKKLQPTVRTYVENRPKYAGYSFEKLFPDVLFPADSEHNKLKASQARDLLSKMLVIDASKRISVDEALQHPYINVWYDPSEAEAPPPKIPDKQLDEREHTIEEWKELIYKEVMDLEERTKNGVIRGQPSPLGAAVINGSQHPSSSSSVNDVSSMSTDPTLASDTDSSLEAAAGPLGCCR

The structures appear in SMILES notation.

Chain of Ribosomal protein S6 kinase alpha-3 (Homo sapiens) (P51812 whole entry): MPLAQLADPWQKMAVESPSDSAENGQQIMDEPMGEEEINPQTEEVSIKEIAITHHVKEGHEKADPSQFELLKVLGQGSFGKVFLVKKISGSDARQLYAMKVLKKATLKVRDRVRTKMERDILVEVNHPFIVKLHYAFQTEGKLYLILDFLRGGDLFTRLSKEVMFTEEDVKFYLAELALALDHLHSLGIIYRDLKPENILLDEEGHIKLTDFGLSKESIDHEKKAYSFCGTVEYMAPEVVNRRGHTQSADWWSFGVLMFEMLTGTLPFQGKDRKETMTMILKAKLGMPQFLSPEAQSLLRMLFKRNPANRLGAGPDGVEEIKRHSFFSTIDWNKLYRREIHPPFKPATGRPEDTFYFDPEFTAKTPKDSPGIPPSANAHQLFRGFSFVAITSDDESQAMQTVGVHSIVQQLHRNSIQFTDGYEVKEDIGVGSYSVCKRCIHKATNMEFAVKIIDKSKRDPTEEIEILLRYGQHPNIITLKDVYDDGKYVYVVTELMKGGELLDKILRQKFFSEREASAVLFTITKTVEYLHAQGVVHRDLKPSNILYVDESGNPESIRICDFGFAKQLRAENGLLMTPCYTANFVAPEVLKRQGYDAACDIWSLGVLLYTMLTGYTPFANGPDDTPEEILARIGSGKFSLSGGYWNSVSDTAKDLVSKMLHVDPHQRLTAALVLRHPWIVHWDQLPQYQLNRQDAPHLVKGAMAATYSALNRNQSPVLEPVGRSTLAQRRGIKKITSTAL
Chain of Serine/threonine-protein kinase Nek6 (Homo sapiens) (Q9HC98 whole entry): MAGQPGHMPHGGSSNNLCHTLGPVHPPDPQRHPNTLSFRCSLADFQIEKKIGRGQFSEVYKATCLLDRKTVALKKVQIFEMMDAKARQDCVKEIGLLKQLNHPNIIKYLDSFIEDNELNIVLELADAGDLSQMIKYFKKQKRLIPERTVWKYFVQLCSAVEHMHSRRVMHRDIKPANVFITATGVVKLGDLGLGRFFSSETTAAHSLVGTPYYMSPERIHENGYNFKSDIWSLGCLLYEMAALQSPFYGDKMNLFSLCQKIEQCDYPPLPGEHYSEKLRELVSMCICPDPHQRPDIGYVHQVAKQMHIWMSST
Chain of Maternal embryonic leucine zipper kinase (Homo sapiens) (Q14680 whole entry, looked up): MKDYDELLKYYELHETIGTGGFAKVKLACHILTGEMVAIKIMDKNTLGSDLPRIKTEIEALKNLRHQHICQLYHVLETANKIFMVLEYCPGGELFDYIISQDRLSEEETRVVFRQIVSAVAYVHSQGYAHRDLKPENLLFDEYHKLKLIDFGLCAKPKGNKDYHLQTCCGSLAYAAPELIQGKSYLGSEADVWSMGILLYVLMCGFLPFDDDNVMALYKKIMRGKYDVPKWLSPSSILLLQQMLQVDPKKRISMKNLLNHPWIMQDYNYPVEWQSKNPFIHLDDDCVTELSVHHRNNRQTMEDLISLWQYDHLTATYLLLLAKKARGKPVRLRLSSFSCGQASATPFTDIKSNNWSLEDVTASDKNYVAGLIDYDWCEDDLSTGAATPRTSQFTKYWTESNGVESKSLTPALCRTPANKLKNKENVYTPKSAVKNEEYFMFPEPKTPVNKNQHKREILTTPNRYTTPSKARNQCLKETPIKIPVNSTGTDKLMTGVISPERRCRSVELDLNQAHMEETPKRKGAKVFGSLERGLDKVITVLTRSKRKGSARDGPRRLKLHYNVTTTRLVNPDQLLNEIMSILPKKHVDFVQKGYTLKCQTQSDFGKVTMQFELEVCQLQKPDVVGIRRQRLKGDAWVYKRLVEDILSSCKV
Chain of SRSF protein kinase 1 (Homo sapiens) (Q96SB4 whole entry): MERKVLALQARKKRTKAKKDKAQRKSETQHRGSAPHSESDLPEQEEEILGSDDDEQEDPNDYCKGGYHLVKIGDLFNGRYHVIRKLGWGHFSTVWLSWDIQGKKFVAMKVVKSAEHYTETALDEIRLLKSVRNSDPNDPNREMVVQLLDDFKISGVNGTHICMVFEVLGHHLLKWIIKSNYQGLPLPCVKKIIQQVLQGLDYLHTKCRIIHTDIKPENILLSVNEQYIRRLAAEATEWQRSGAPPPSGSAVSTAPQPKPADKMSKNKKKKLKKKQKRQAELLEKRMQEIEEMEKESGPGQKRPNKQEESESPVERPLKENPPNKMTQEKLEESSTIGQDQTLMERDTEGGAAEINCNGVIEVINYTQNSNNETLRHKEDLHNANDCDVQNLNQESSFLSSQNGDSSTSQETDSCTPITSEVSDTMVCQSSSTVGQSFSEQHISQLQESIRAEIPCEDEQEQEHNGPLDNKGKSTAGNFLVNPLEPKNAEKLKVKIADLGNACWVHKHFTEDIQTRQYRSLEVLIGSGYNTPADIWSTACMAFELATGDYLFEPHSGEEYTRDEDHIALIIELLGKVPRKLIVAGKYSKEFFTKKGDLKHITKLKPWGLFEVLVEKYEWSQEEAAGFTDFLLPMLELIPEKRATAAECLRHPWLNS
Chain of Serine/threonine-protein kinase pim-2 (Homo sapiens) (Q9P1W9 whole entry, looked up): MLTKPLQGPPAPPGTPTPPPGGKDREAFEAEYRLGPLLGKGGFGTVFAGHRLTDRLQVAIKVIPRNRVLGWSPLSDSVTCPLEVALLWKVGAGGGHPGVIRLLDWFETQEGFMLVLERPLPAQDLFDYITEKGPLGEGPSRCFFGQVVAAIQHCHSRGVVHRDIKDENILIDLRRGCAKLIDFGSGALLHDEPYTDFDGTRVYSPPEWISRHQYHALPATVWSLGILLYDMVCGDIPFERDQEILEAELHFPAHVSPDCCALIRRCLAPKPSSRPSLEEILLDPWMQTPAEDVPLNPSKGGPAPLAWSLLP

With `CC(=O)Nc1cccc(-c2cnc3[nH]nc(C)c3c2)c1`, the Activity worked out at 95.9% in [1]; 77.3% in experiment [2]; 58.7% in [3]; 63.8% in [4]; 93.8% in [5]; 37.3% in the experiment with A-375 [6]. Moreover, the Activity is 45.7% with A-375 [7]; 95.3% in experiment [8]; 73.1% in experiment [9]; 76.1% in experiment [10]; 39.9% in experiment [11]; 83.3% in the experiment listed under Bos taurus. The Activity in experiment [12] stood at 15.8%; in experiment [13], 44.3%; in the experiment filed under Rattus norvegicus, 69.9%; in experiment [14], 117%; in the experiment listed under Homo sapiens, 54.5%; in experiment [15] it was 93.3%.
As for `CC(=O)Nc1nccc(-c2c(-c3ccccc3)noc2C)n1`, the Activity in experiment [1] was found to be 87.7%; in [2], 64.9%; in experiment [3], 103%; in experiment [4] it was 94.7%; in [5], 78.7%; in the experiment on A-375 [6], 16.2%. The Activity in the experiment with A-375 [7] was 3.32%; in experiment [8], 82.7%; in experiment [9], 105%; in experiment [10] it was 103%; in experiment [11], 102%; in the experiment filed under Bos taurus it was 92.8%. Moreover, the Activity in [12] was 89.5%; in [13] it was 75.3%; in the experiment filed under Rattus norvegicus, 101%; in experiment [14] it was 97.1%; in the experiment listed under Homo sapiens, 79.5%; in [15] it was 67%.
In the case of `CCCC(=O)Nc1n[nH]c2ncc(-c3cccnc3)cc12`, the Activity in [1] was determined as 93%; in experiment [2], 86%; in experiment [5], 92%; in experiment [8] it was 70%; in experiment [9], 89%; in experiment [10], 115%. In addition, the Activity in [11] turned out to be 2%; in the experiment listed under Bos taurus, 94%; in experiment [13], 99%; in the experiment listed under Rattus norvegicus, 105%; in [15] it was 97%.
